The numbers were not newly measured in patent publication US8759069B2, “Contaminant control in Zymomonas fermentation using hop acids” (priority 2012, dated 2014), which cites them from elsewhere.

Data set [1] relates to Zymomonas mobilis strain ZM4. The settings on record: antibiotic concentrations that are safe to use with yeast.
A further data set relates to bacterial contamination. The settings on record: batch Zymomonas mobilis fermentation for ethanol production.

As for `[H]/N=C(/N)N[C@H]1[C@H](O)[C@@H](O)[C@H](O[C@@H]2O[C@@H](C)[C@](O)(C=O)[C@H]2O[C@@H]2O[C@@H](CO)[C@H](O)[C@@H](O)[C@@H]2NC)[C@@H](N/C(N)=N\[H])[C@@H]1O` [streptomycin], the “effect on Zymomonas mobilis strain ZM4” value in data set [1] was “inhibitory to growth”.

`CC1(C)S[C@@H]2[C@H](NC(=O)Cc3ccccc3)C(=O)N2[C@H]1C(=O)O` [penicillin G]: in data set [1], the “effect on Zymomonas mobilis strain ZM4” value is listed as “safe for use with Zymomonas”. In addition, the “control of bacterial contamination” value with bacterial contamination is on record as “successfully used to control bacterial contamination”.

Turning to polymixin, in data set [1], the “effect on Zymomonas mobilis strain ZM4” value was “inhibitory to growth”.
